Target: T1, human JAK1 (a.a. 837-1142) catalytic domain (Homo sapiens, UniProt P23458)
T1 construct: human JAK1 (a.a. 837-1142); His tag (N); made in house; host or cells: insect cells (baculovirus)
Test: In vitro JAK kinase assay (HTRF, phosphorylation of biotinylated peptide)
Type: biochemical
Conditions: measured at 1 mM ATP
Experimental: The compound of Formula I was tested for inhibitory activity of JAK targets according to the following in vitro assay described in Park et al., Analytical Biochemistry 1999, 269, 94-104. The catalytic domains of human JAK1 (a.a. 837-1142) and JAK2 (a.a. 828-1132) with an N-terminal His tag were expressed using baculovirus in insect cells and purified. The catalytic activity of JAK1 and JAK2 was assayed by measuring the phosphorylation of a biotinylated peptide. The phosphorylated peptide was detected by homogenous time resolved fluorescence (HTRF). IC50s of compounds were measured for each kinase in the 40 micro L reactions that contain the enzyme, ATP and 500 nM peptide in 50 mM Tris (pH 7.8) buffer with 100 mM NaCl, 5 mM DTT, and 0.1 mg/mL (0.01%) BSA. For the 1 mM IC50 measurements, ATP concentration in the reactions was 1 mM. Reactions were carried out at room temperature for 1 hr and then stopped with 20 μL 45 mM EDTA, 300 nM SA-APC, 6 nM Eu-Py20 in assay buffer (Perkin Elmer, Boston, Mass.). Binding to the Europium labeled antibody took place for 40 minutes and HTRF signal was measured on a Fusion plate reader (Perkin Elmer, Boston, Mass.).

T1 sequence (P23458 849-1154): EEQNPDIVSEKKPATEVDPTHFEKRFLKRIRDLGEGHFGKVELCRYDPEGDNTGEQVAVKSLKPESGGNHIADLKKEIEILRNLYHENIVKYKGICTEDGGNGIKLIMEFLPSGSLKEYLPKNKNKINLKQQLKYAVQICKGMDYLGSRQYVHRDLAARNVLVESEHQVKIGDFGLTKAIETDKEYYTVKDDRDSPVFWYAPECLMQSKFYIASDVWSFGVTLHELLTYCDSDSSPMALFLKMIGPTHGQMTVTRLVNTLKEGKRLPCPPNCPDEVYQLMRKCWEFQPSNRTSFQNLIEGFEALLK

In the case of `N#CCC1(n2cc(-c3ncnc4[nH]ccc34)cn2)CN(C2CCN(C(=O)c3ccnc(C(F)(F)F)c3F)CC2)C1` [Formula I, {1-{1-[3-fluoro-2-(trifluoromethyl)isonicotinoyl]piperidin-4-yl}-3-[4-(7H-pyrrolo[2,3-d]pyrimidin-4-yl)-1H-pyrazol-1-yl]azetidin-3-yl}acetonitrile], the IC50 is reported as under 5 nM.
